Assay results published in ChEMBL document CHEMBL1201862, “PubChem BioAssay data set” (2004).
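Where inhibition never reached the appropriate level, the endpoint shown equals the highest concentration tested. Otherwise, values were interpolated linearly from a five-concentration, 48-hour dose response in 96-well plates. The concentration for 50% growth inhibition is given as GI50.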 Activity calls are given as the source filed them. No stated cut-off is given here; in the data, active = GI50 up to about 1.1 µM and inactive = higher.

How the values were obtained:
Assay in all cases: NCI tumour cell line growth inhibition, 48 h
UACC-62 = system: UACC-62
BT-549 = system: BT-549
EKVX = system: EKVX
SF-539 = system: SF-539
SNB-75 = system: SNB-75
OVCAR-5 = system: OVCAR-5
MDA-MB-435 = system: MDA-MB-435
SK-MEL-28 = system: SK-MEL-28
U-251 = system: U-251
SK-OV-3 = system: SK-OV-3
KM12 = system: KM12
SNB-19 = system: SNB-19
UO-31 = system: UO-31
SF-295 = system: SF-295
UACC-257 = system: UACC-257
TK-10 = system: TK-10
SW-620 = system: SW-620
Malme-3M = system: Malme-3M
CAKI-1 = system: CAKI-1
SK-MEL-2 = system: SK-MEL-2
HL-60 = system: HL-60
MDA-N = system: MDA-N
HCT-116 = system: HCT-116
RXF 393 = system: RXF 393
MOLT-4 = system: MOLT-4
NCI-H522 = system: NCI-H522
CCRF-CEM = system: CCRF-CEM
Hs-578T = system: Hs-578T
K562 = system: K562
SN12C = system: SN12C
HOP-62 = system: HOP-62
MDA-MB-231 = system: MDA-MB-231
DU-145 = system: DU-145
T47D = system: T47D
RPMI-8226 = system: RPMI-8226
786-0 = system: 786-0
COLO 205 = system: COLO 205
HT-29 = system: HT-29
A549 = system: A549
LOX IMVI = system: LOX IMVI
M14 = system: M14
IGROV-1 = system: IGROV-1
NCI-H23 = system: NCI-H23
PC-3 = system: PC-3
MCF7 = system: MCF7
NCI-H226 = system: NCI-H226
HCC 2998 = system: HCC 2998
A498 = system: A498
ACHN = system: ACHN
OVCAR-8 = system: OVCAR-8
HCT-15 = system: HCT-15
SF-268 = system: SF-268
NCI/ADR-RES = system: NCI/ADR-RES
NCI-H460 = system: NCI-H460
SK-MEL-5 = system: SK-MEL-5
OVCAR-4 = system: OVCAR-4
OVCAR-3 = system: OVCAR-3
HOP-92 = system: HOP-92

[O-][n+]1nc(N2CCOCC2)nc2ccccc21
GI50 (UACC-62): > 100 µM (inactive) | GI50 (BT-549): > 100 µM (inactive) | GI50 (EKVX): > 100 µM (inactive) | GI50 (SF-539): > 100 µM (inactive) | GI50 (SNB-75): > 100 µM (inactive) | GI50 (OVCAR-5): > 100 µM (inactive) | GI50 (MDA-MB-435): > 100 µM (inactive) | GI50 (SK-MEL-28): > 100 µM (inactive) | GI50 (U-251): > 100 µM (inactive) | GI50 (SK-OV-3): > 100 µM (inactive) | GI50 (KM12): > 100 µM (inactive) | GI50 (SNB-19): > 100 µM (inactive) | GI50 (UO-31): > 100 µM (inactive) | GI50 (SF-295): > 100 µM (inactive) | GI50 (UACC-257): > 100 µM (inactive) | GI50 (TK-10): 77.1 µM (inactive) | GI50 (SW-620): > 100 µM (inactive) | GI50 (Malme-3M): > 100 µM (inactive) | GI50 (CAKI-1): > 100 µM (inactive) | GI50 (SK-MEL-2): > 100 µM (inactive) | GI50 (HL-60): > 100 µM (inactive) | GI50 (MDA-N): > 100 µM (inactive) | GI50 (HCT-116): > 100 µM (inactive) | GI50 (RXF 393): 49.5 µM (inactive) | GI50 (MOLT-4): > 100 µM (inactive) | GI50 (NCI-H522): > 100 µM (inactive) | GI50 (CCRF-CEM): > 100 µM (inactive) | GI50 (Hs-578T): > 100 µM (inactive) | GI50 (K562): > 100 µM (inactive) | GI50 (SN12C): > 100 µM (inactive) | GI50 (HOP-62): > 100 µM (inactive) | GI50 (MDA-MB-231): > 100 µM (inactive) | GI50 (DU-145): > 100 µM (inactive) | GI50 (T47D): > 100 µM (inactive) | GI50 (RPMI-8226): > 100 µM (inactive) | GI50 (786-0): > 100 µM (inactive) | GI50 (COLO 205): > 100 µM (inactive) | GI50 (HT-29): > 100 µM (inactive) | GI50 (A549): > 100 µM (inactive) | GI50 (LOX IMVI): > 100 µM (inactive) | GI50 (M14): > 100 µM (inactive) | GI50 (IGROV-1): > 100 µM (inactive) | GI50 (NCI-H23): > 100 µM (inactive) | GI50 (PC-3): > 100 µM (inactive) | GI50 (MCF7): > 100 µM (inactive) | GI50 (NCI-H226): > 100 µM (inactive) | GI50 (HCC 2998): > 100 µM (inactive) | GI50 (A498): 43.3 µM (inactive) | GI50 (ACHN): > 100 µM (inactive) | GI50 (OVCAR-8): > 100 µM (inactive) | GI50 (HCT-15): > 100 µM | GI50 (SF-268): > 100 µM (inactive) | GI50 (NCI/ADR-RES): > 100 µM (inactive)

COC(=O)C1=COC(C)C2C[n+]3ccc4c([nH]c5ccccc54)c3CC12 (stereo unspecified)
GI50 (UACC-62): > 100 µM (inactive) | GI50 (BT-549): > 100 µM (inactive) | GI50 (NCI-H460): 36.2 µM (inactive) | GI50 (SK-MEL-5): > 100 µM (inactive) | GI50 (EKVX): > 100 µM (inactive) | GI50 (SF-539): > 100 µM (inactive) | GI50 (SNB-75): > 100 µM (inactive) | GI50 (OVCAR-5): > 100 µM (inactive) | GI50 (OVCAR-4): 81.7 µM (inactive) | GI50 (MDA-MB-435): > 100 µM (inactive) | GI50 (SK-MEL-28): > 100 µM (inactive) | GI50 (U-251): > 100 µM (inactive) | GI50 (SK-OV-3): > 100 µM (inactive) | GI50 (KM12): > 100 µM (inactive) | GI50 (SNB-19): > 100 µM (inactive) | GI50 (UO-31): > 100 µM (inactive) | GI50 (SF-295): > 100 µM (inactive) | GI50 (UACC-257): > 100 µM (inactive) | GI50 (TK-10): > 100 µM (inactive) | GI50 (SW-620): > 100 µM (inactive) | GI50 (CAKI-1): > 100 µM (inactive) | GI50 (SK-MEL-2): > 100 µM (inactive) | GI50 (HL-60): > 100 µM (inactive) | GI50 (MDA-N): > 100 µM (inactive) | GI50 (OVCAR-3): > 100 µM (inactive) | GI50 (HCT-116): > 100 µM (inactive) | GI50 (MOLT-4): 38.9 µM (inactive) | GI50 (NCI-H522): 54.5 µM (inactive) | GI50 (CCRF-CEM): > 100 µM (inactive) | GI50 (Hs-578T): > 100 µM (inactive) | GI50 (K562): > 100 µM (inactive) | GI50 (SN12C): > 100 µM (inactive) | GI50 (HOP-62): > 100 µM (inactive) | GI50 (MDA-MB-231): > 100 µM (inactive) | GI50 (DU-145): > 100 µM (inactive) | GI50 (T47D): 36.6 µM (inactive) | GI50 (RPMI-8226): > 100 µM (inactive) | GI50 (786-0): > 100 µM (inactive) | GI50 (COLO 205): > 100 µM (inactive) | GI50 (HT-29): > 100 µM (inactive) | GI50 (A549): > 100 µM (inactive) | GI50 (LOX IMVI): > 100 µM (inactive) | GI50 (M14): > 100 µM (inactive) | GI50 (IGROV-1): 49.1 µM (inactive) | GI50 (NCI-H23): > 100 µM (inactive) | GI50 (PC-3): > 100 µM (inactive) | GI50 (MCF7): 42.7 µM (inactive) | GI50 (NCI-H226): 44.9 µM (inactive) | GI50 (HCC 2998): > 100 µM (inactive) | GI50 (A498): > 100 µM (inactive) | GI50 (ACHN): > 100 µM (inactive) | GI50 (OVCAR-8): > 100 µM (inactive) | GI50 (HCT-15): 75.2 µM | GI50 (HOP-92): > 100 µM (inactive) | GI50 (SF-268): > 100 µM (inactive) | GI50 (NCI/ADR-RES): > 100 µM (inactive)

C/C(N)=C/C(=O)c1[nH]c(C(=O)O)cc1C1CCN(Cc2ccccc2)C1=O (stereo unspecified)
GI50 (UACC-62): 22.3 µM (inactive) | GI50 (BT-549): 31.8 µM (inactive) | GI50 (NCI-H460): 29.4 µM (inactive) | GI50 (SK-MEL-5): 15.3 µM (inactive) | GI50 (EKVX): 30.1 µM (inactive) | GI50 (SNB-75): 23.1 µM (inactive) | GI50 (OVCAR-5): 30.2 µM (inactive) | GI50 (OVCAR-4): 47.8 µM (inactive) | GI50 (MDA-MB-435): 40.6 µM (inactive) | GI50 (SK-MEL-28): 24.3 µM (inactive) | GI50 (U-251): 39.6 µM (inactive) | GI50 (SK-OV-3): 28.6 µM (inactive) | GI50 (KM12): 31.9 µM (inactive) | GI50 (SNB-19): 33.4 µM (inactive) | GI50 (UO-31): 23.2 µM (inactive) | GI50 (SF-295): 21.3 µM (inactive) | GI50 (UACC-257): 28.6 µM (inactive) | GI50 (TK-10): 38.5 µM (inactive) | GI50 (SW-620): 46.1 µM (inactive) | GI50 (Malme-3M): 18.8 µM (inactive) | GI50 (CAKI-1): 40.8 µM (inactive) | GI50 (SK-MEL-2): 28.9 µM (inactive) | GI50 (MDA-N): 23.7 µM (inactive) | GI50 (OVCAR-3): 20.6 µM (inactive) | GI50 (HCT-116): 22.2 µM (inactive) | GI50 (RXF 393): 18.5 µM (inactive) | GI50 (MOLT-4): 24.4 µM (inactive) | GI50 (NCI-H522): 20.6 µM (inactive) | GI50 (Hs-578T): 27.9 µM (inactive) | GI50 (K562): 20.8 µM (inactive) | GI50 (HOP-62): 18.4 µM (inactive) | GI50 (MDA-MB-231): 41.1 µM (inactive) | GI50 (DU-145): 22.1 µM (inactive) | GI50 (T47D): 22.8 µM (inactive) | GI50 (RPMI-8226): 19.6 µM (inactive) | GI50 (786-0): 26.7 µM (inactive) | GI50 (COLO 205): 23.9 µM (inactive) | GI50 (HT-29): 31.8 µM (inactive) | GI50 (A549): 34.4 µM (inactive) | GI50 (M14): 18.8 µM (inactive) | GI50 (IGROV-1): 27.2 µM (inactive) | GI50 (NCI-H23): 22.8 µM (inactive) | GI50 (PC-3): 37.6 µM (inactive) | GI50 (MCF7): 24.2 µM (inactive) | GI50 (HCC 2998): 52.7 µM (inactive) | GI50 (A498): 65.3 µM (inactive) | GI50 (ACHN): 30 µM (inactive) | GI50 (OVCAR-8): 21.8 µM (inactive) | GI50 (HCT-15): 29.9 µM | GI50 (HOP-92): 17 µM (inactive) | GI50 (SF-268): 22.3 µM (inactive) | GI50 (NCI/ADR-RES): 19.9 µM (inactive)
